pKi: −log10 of the molar value.
Test: Binding affinity against [3H]8-OH-DPAT-labeled 5-hydroxytryptamine 1A receptor sites in bovine hippocampus

Point of comparison: `CCCN1CCC2c3c(cccc3OC)CC[C@@H]21` (stereo partly drawn) [9-Methoxy-3-propyl-2,3,3a,4,5,9b-hexahydro-1H-benzo[e]indole], pKi 6.73. Against it:
- CCCN1CCC2c3c(cccc3OC)CCC21 (stereo not drawn) [9-Methoxy-3-propyl-2,3,3a,4,5,9b-hexahydro-1H-benzo[e]indole] — 1.63 log units higher, 8.36
- COc1cccc2c1CC[C@@H]1[C@H]2CCN1CC1CC1 [(3aR,9bS)-3-Cyclopropylmethyl-6-methoxy-2,3,3a,4,5,9b-hexahydro-1H-benzo[e]indole] — lower, < 6.00
